Experimental data published in patent US12084430B2, “Tricyclic urea compounds as JAK2 V617F inhibitors” (Incyte Corporation, priority 2022, dated 2024).

Tests used:
TRKA [1] = test: TRKA enzymatic assay; assay type: biochemical
Experimental: (§1) Example I. TRKA Enzymatic Assay
(§2) The kinase assays were carried out at 24° C. temperature in assay buffer (HEPES 50 mM, pH 7.0, NaN3 0.02%, BSA 0.01%, Orthovanadate 0.1 mM, DTT 1 mM, MgCl2 10 mM) in a final volume of 10 μL. Testing compounds were prepared by serial dilution in DMSO and transferred to the plate wells by ECHO liquid handler (Labcyte) with 0.5% DMSO in the final assay. […]. Reactions were initiated by the addition of 5 μL ATP in assay buffer. The final 10 μL kinase reaction consists of 0.58 nM TRKA, 1 mM ATP, 500 nM TK Substrate-biotin and SEB reagent 62.5 nM in assay buffer. […] After 60 minutes incubation at room temperature, the product activity was determined by measuring the fluorescence at 620 nm and 665 nm on Pherastar microplate reader (BMG Labtech). A ratio is calculated (665/620 nm) for each well. Wells with DMSO only were served as the positive controls and wells containing no ATP were used as negative controls. IC50 determination was performed by fitting the curve of percent control activity versus the log of the compound concentration using the Gene data.

TRKA [2] = biological target: TRKA (Homo sapiens, UniProt P04629); test: TRKA enzymatic assay; assay type: biochemical; conditions: 1 mM ATP
Sequence of TRKA (Homo sapiens, UniProt P04629) (P04629 33-796, species assumed): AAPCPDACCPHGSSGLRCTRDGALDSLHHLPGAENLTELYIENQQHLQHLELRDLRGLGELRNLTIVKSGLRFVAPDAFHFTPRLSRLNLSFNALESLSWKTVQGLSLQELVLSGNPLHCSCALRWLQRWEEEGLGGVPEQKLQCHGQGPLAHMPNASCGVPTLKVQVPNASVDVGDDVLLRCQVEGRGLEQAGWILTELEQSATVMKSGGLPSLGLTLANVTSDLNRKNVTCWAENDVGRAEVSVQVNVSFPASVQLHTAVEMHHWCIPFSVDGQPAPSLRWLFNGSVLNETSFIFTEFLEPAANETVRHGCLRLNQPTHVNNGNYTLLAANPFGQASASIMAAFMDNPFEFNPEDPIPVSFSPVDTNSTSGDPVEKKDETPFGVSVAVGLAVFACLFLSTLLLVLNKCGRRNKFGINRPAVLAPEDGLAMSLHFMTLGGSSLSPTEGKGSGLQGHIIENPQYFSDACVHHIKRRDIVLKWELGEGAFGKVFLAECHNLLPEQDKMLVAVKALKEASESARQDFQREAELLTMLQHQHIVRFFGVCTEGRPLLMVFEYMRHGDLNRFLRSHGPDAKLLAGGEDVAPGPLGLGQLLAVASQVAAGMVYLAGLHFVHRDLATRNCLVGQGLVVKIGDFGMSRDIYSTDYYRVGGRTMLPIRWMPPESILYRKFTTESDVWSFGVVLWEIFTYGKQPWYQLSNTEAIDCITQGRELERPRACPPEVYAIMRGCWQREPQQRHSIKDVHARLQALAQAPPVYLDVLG
Experimental: as §1, §2

KIT = KIT enzymatic assay; assay type: biochemical
Experimental: Example D. KIT Enzymatic Assay
(§3) The kinase assays were carried out at room temperature in assay buffer (HEPES 50 mM, pH 7.0, NaN3 0.02%, BSA 0.01%, Orthovanadate 0.1 mM, DTT 1 mM, MgCl2 10 mM) in a final volume of 10 μL. Testing compounds were prepared by serial dilution in DMSO and transferred to the plate wells by ECHO liquid handler (Labcyte) with 0.5% DMSO in the final assay. […]. Reactions were initiated by the addition of 5 μL ATP in assay buffer. The final 10 μL kinase reaction consists of 0.12 nM KIT, 1 mM ATP, 500 nM TK Substrate-biotin and SEB reagent 62.5 nM in assay buffer. […] The plates were then sealed and centrifuged at 1800 rpm for 2 minutes. After 60 minutes incubation at room temperature, the product activity was determined by measuring the fluorescence at 620 nm and 665 nm on Pherastar microplate reader (BMG Labtech). A ratio is calculated (665/620 nm) for each well. Wells with DMSO only were served as the positive controls and wells containing no ATP were used as negative controls. IC50 determination was performed by fitting the curve of percent control activity versus the log of the compound concentration using the GraphPad Prism 7.0 software.

[3] = system: STAT5 (Tyr694) phosphorylation in SET-2 cells; test: STAT5 (Tyr694) phosphorylation cell based assay; conditions: Homo sapiens, pSTAT5, 2 hours, read-out: SET2 IC50
Experimental: Example E. STAT5 (Tyr694) Phosphorylation Cell Based Assay
SET-2 cells was purchased from DSMZ (Germany). RPMI1640 medium, Fetal Bovine Serum and 384-white sold flat-bottom small volume plate were purchased from Thermo Fisher Scientific (Waltham, MA). Phospho-STAT5 (Tyr694) HTRF kit was purchased from Perkin Elmer (Waltham, MA).
SET-2 cells were cultured in RPMI media with 20% FBS at 37° C. in humidified incubator supplied with 5% CO2. On the day of assay, the cells were centrifuged to remove the culture media and resuspended with prewarmed RPMI with 10% FBS. Testing compounds were prepared by serial dilution in DMSO and 50 nL/well test compounds were transferred to the 384 white low volume cell culture plate (Greiner Bio-one) by ECHO liquid handler (Labcyte). The cells were then dispensed with Multidrop (Thermo Fisher, Waltham, MA) at 10 μL/well (7×10^6 cells/mL) with 0.5% DMSO in the final assay. After the treated cells were incubated for 2 hours at 37° C./5% CO2 incubator, 4 μL/well supplemented lysis buffer (100× blocking buffer diluted 25 fold in 4× lysis buffer, Perkin Elmer) were added and incubated at room temperature for 90 min on orbital shaker at 600 rpm. Phospho-STAT5 Cryptate antibody and Phospho-STAT5 d2 antibody (1:1 vol/vol) were premixed and diluted 20 fold with in the detection buffer (Perkin Elmer). 4 μL of the premixed antibody solution were added to each well followed with 24 hours incubation at room temperature on orbital shaker at 600 rpm. The product activity was determined by measuring the fluorescence at 620 nm and 665 nm on Pherastar microplate reader (BMG Labtech). A ratio is calculated (665/620) for each well. Wells with DMSO only served as the positive controls and wells containing high concentration of control compound were used as negative controls. IC50 determination was performed by fitting the curve of percent control activity versus the log of the compound concentration using the GraphPad Prism 7.0 software.

[4] = In vitro intrinsic clearance; assay type: in vitro ADME; conditions: human liver microsomes, 1 μM
Experimental: Example G. In Vitro Intrinsic Clearance Protocol
For in vitro metabolic stability experiments, test compounds were incubated with human liver microsomes at 37° C. The incubation mixture contained test compounds (1 μM), NADPH (2 mM), and human liver microsomes (0.5 mg protein/mL) in 100 mM phosphate buffer (pH 7.4). The mixture was pre-incubated for 2 min at 37° C. before the addition of NADPH. Reactions were commenced upon the addition of NADPH and quenched with ice-cold methanol at 0, 10, 20, and 30 min. Terminated incubation mixtures were analyzed using LC-MS/MS system. The analytical system consisted of a Shimadzu LC-30AD binary pump system and SIL-30AC autosampler (Shimadzu Scientific Instruments, Columbia, MD) coupled with a Sciex Triple Quad 6500+ mass spectrometer from Applied Biosystems (Foster City, CA). […] Mobile phase A consisted of 0.1% formic acid in water, and mobile phase B consisted of 0.1% formic acid in acetonitrile. The total LC-MS/MS runtime was 2.75 minutes with a flow rate of 0.75 mL/min. Peak area integrations and peak area ratio calculations were performed using Analyst software (version 1.6.3) from Applied Biosystems.
The in vitro intrinsic clearance, CLint, in vitro, was calculated from the t1/2 of test compound disappearance as CLint, in vitro=(0.693/t1/2)×(1/Cprotein), where Cprotein is the protein concentration during the incubation, and t1/2 was determined by the slope (k) of the log-linear regression analysis of the concentration versus time profiles; thus, t1/2=ln 2/k. The CLint, in vitro values were scaled to the in vivo values for human by using physiologically based scaling factors, hepatic microsomal protein concentrations (45 mg protein/g liver), and liver weights (21 g/kg body weight). The equation CLint=CLint, in vitro×(mg protein/g liver weight)×(g liver weight/kg body weight) was used. The in vivo hepatic clearance (CLH) was then calculated by using CLint and hepatic blood flow, Q (20 mL·min^−1·kg^−1 in humans) in the well-stirred liver model disregarding all binding from CLH=(Q×CLint)/(Q+CLint). The hepatic extraction ratio was calculated as CLH divided by Q.

FLT3 = FLT3 enzymatic assay; assay type: biochemical
Experimental: Example C. FLT3 Enzymatic Assay
as §3, with “0.011” for “0.12”, “FLT3,” for “KIT,”

Row | IC50 (TRKA [2]) | IC50 [3] | h-IntCL [4] | SMILES | Selectivity TRKA/JH2 V617F (TRKA [1]) | Selectivity KIT/JH2 V617F (KIT) | Selectivity FLT3/JH2 V617F (FLT3)
1 | < 25 nM | ≤ 300 nM | ‡ ‡ ‡ (h-IntCL of >1 L/h/kg) | Cn1cc(-c2[nH]c3ncc4c(c3c2-c2ccc3c(cnn3C)c2)n([C@H]2CC[C@@H](CC#N)CC2)c(=O)n4C)cn1 [C, reference compound] | * (selectivity of ≤500-fold) | * (selectivity of ≤500-fold) | * (selectivity of ≤500-fold)
2 |  | ≤ 300 nM | ‡ ‡ ‡ (h-IntCL of >1 L/h/kg) | COc1ccc(-c2c(-c3cnn(Cc4ccncc4)c3)[nH]c3ncc4c(c23)n(C2CCCC2)c(=O)n4C)cc1 [Comparative Example D, reference compound] |  |  | 
